Patent publication EP1144011B1, “PRODRUG COMPOUNDS AND PROCESS FOR PREPARATION THEREOF” (Coulter Pharmaceutical, Inc., priority 1998, dated 2000)

Experiments:
[1] = tested on: MCF 7/6 (breast carcinoma) cell homogenate; assay: Compound screen: cleavage by MCF 7/6 cell homogenate, HPLC; format: biochemical
Protocol: Based on HPLC analysis of digestion products, activation of peptidyl-toxin to free toxin occurs via a series of enzyme catalyzed cleavage reactions. […] Initial endopeptidase cleavage occurs between the AA^3 (P1) and AA^2(P1') amino acids to yield alanyl-leucyl-doxorubicin.
(§1) Test samples were incubated at 37°C for 2 hr with the three different preparations of carcinoma enzyme and with whole blood, extracted with acetonitrile, and analyzed by HPLC using fluorescence detection. With few exceptions, results for carcinoma enzyme cleavage were the same for a partially purified fraction from HeLa cells, MFC 7/6 cell homogenate, or MCF 7/6 conditioned media.
MCF 7/6 cells were grown to confluence in a serum free medium containing DMEM:F12 (1:1), 50 mg/L bovine serum albumin, ITS-X, and Lipid Concentrate. 100 mL of cells were harvested by centrifugation at 4°C 10,000xg, for 20 min and decanting the supernatant. The pellet was resuspended in 2 mL phosphate buffered saline (Gibco) and centrifuged at 18,000xg for 10 min. […]
(§2) For HPLC analysis 50 µL of sample was injected on a 4.6 x 50 mm 2µ TSK Super-ODS chromatography column at 40°C and eluted with a 3 minute linear gradient from 26% to 68% acetonitrile in aqueous 20 mM ammonium acetate pH 4.5 buffer at 2 mL/min. Detection was by fluorescence using an excitation wavelength of 235 nm and an emission wavelength of 560 nm. […]

[2] = tested on: MCF 7/6 (breast carcinoma) conditioned media; assay: Compound screen: cleavage by MCF 7/6 conditioned media, HPLC; format: biochemical; details: 2 hr at 37°C
Protocol: as §1
MCF 7/6 cells were grown to confluence in DMEM/F12 (1:1) medium containing 10 % fetal bovine serum, 0.05% (w/v) L-glutamine, 250 IU/mL penicillin, and 100 µg/mL streptomycin. Cells were then washed twice with phosphate buffered saline and incubated 24 hr at 5% CO2, 37°C, in DMEM/F12 (1:1), 0.02% BSA, ITS-X. The conditioned media was then decanted and, using a stirred cell apparatus with a YM10 (10.000 MW cutoff) ultrafiltration membrane(Millipore), exchanged once with 10 mM HEPES buffer, pH 7.2 and concentrated twenty-fold. This solution was stored in aliquots at-20°C for use in the compound screen. […]
as §2

trouase = assay: Compound screen: cleavage by HeLa cell anion exchange fraction pool (partially purified trouase), HPLC; format: biochemical, human; details: 2 hr at 37°C
Protocol: as §1
Thirty billion commercially produced HeLa Cells (human cervical carcinoma, Computer Cell Culture Center, Seneffe, Belgium) were homogenized with a sonicator and with a Dounce homogenizer in 108 mL of aqueous lysis solution. […]
A portion of the ultracentrifugation supernatant was diluted 2-fold with a 20 mM triethanolamine-HCl pH 7.2 buffer containing 0.01% (w/v) Triton X-100 and 0.02% (w/v) sodium azide (equilibration buffer). […] Its transformation into L-alanyl-L-leucyl-doxorubicin was quantified by reverse phase high performance liquid chromatography utilizing fluorescence detection of the anthracycline moiety. […]
as §2

[3] = tested on: estrogen-dependent MCF-7/6 mammary tumor; assay: Nude mouse xenograft model, MCF-7/6; format: in vivo; details: MCF-7/6 xenograft
[4] = tested on: adriamycin-resistant colorectal carcinoma CXF280/10; assay: Nude mouse xenograft model, CXF280/10; format: in vivo; details: CXF280/10 xenograft
[5] = Acute toxicity after intravenous injection in mice; format: in vivo; details: iv bolus of 250 mg/kg (Dox-HCl eq.), three to five mice per group
[6] = Supporting toxicity studies; details: doses of up to 106.8 mg/kg
[7] = tested on: LS-174T human colorectal carcinoma; assay: Nude mouse xenograft model, LS-174T
[8] = subcutaneous LS174T tumors, five weekly intravenous doses of 57, 64 and 71 mg/kg, versus vehicle-treated controls

Row | Compound | extent (rate) of cleavage by cell homogenate versus the P2 β-alanine compound ([1]; 2 hr at 37°C) [fold] | extent of cleavage by conditioned medium versus the P2 β-alanine compound [2] | extent of cleavage with the partially purified trouase preparation versus the P2 β-alanine compound (trouase) [fold] | activation of peptidyl-toxin (digestion products by HPLC) ([1]; extracts of carcinoma cells or carcinoma cell conditioned media, two steps, at least two enzymes) | inhibiting the growth of human tumors [3] | inhibiting the growth of human tumors [4] | survival [5] | kidney toxicity and myelosuppression [6] | inhibiting the growth of human tumors ([7]; LS-174T xenograft) | toxicity at efficacious doses ([7]; LS-174T xenograft model) | efficacy in inhibiting LS-174T tumor compared to doxorubicin at 3.0 mg/kg and saline ([7]; doses of 49, 57 and 64 mg/kg) | body weight ([7]; repeat dosing, LS174T model) | safety and tolerability ([7]; repeat-dose levels and frequencies that demonstrated anti-tumor efficacy) | Mean Day of Survival (MDS) [7, 8] | tumor volume [7, 8]
1 | COc1cccc2c1C(=O)c1c(O)c3c(c(O)c1C2=O)C[C@@](O)(C(C)=O)C[C@@H]3O[C@H]1C[C@H](NC(=O)[C@H](CC(C)C)NC(=O)[C@H](C)NC(=O)[C@H](CC(C)C)NC(=O)[C@H](C)NC(=O)CCC(=O)O)[C@H](O)[C@H](C)O1 [P2 L-alanine compound] | 1.3 | about the same | 0.6 |  |  |  |  |  |  |  |  |  |  |  | 
2 | COc1cccc2c1C(=O)c1c(O)c3c(c(O)c1C2=O)CC(O)(C(=O)CO)CC3OC1CC(NC(=O)C(CC(C)C)NC(=O)C(C)NC(=O)C(CC(C)C)NC(=O)CCNC(=O)CCC(=O)O)C(O)C(C)O1 (stereo not drawn) [succinyl-β-Ala-Leu-Ala-Leu-Dox] |  |  |  | converted to leucyl-doxorubicin | efficacious | efficacious | all animals survived up to 8 days | not observed | efficacious | without significant toxicity | superior efficacy | Some dose-dependent body weight loss | safe and well-tolerated | significant, dose-dependent, replicable extension | decreased size of the tumor
